Series [1] relates to secretion of PGE2 by A549 cells stimulated with IL-1β. Kind of series: Inhibition of the secretion of PGE2 by A549 cells stimulated with IL-1β. The format is cell-based. Conditions: Homo sapiens, A549; IL-1β 0.2 ng/mL, 24 hours. The text has this: The method described here was used for determining the inhibition activity of the present compounds on the secretion of PGE2 by A549 cells stimulated with IL-1β.
• 1. PGE2 Assay kit (Cisbio, #62P2APEB) • 2. IL-1β (Peprotech, # AF-200-01B) • 3. Cell line: A549 (ATCC: CCL-185) • 4. FlexStation3 microplate reader. II. Experimental Procedure
On the first day, A549 cells were inoculated in a 96-well plate at 40000/well. On the second day, the culture medium in the 96-well plate was removed and then added with 90 μL of compound diluted with culture medium (the concentration of each compound at seven gradient concentrations was 11111 nM, […], 1.11 nM, 0.11 nM and 0.011 nM). The cells were incubated for 30 minutes at 37° C. in an incubator, and then added with IL-1β to a final concentration of 0.2 ng/mL. Then, the cells were incubated for another 24 hours at 37° C. On the third day, 10 μl of supernatant, 5 μL of PGE2-d2 and 5 μL of anti-PGE2 Cryptate were added into a black 384-well plate, and then incubated at 4° C. overnight. HTRF was determined using Flexstation, and the IC50 of the compounds was obtained by data processing software.
The inhibition activity of the present compounds on the secretion of PGE2 by A549 cells stimulated with IL-1β was determined by the assay described above.

Series [2] in a line: Pharmacokinetics assay in rats. The format is in vivo. Conditions: both sexes, Sprague-Dawley, rat, plasma, po, SD rats, intragastric, 5 mg/kg. As to the method: Rats were used as test animals. The drug concentration in plasma at different time points was determined by LC/MS/MS after administration of the compounds of Example 8, Example 11, Example 14, Example 17, Example 20, Example 27, Example 33, Example 35, Example 36, Example 37 and Example 48 to rats. The pharmacokinetic behavior of the present compounds was studied and evaluated in rats.
Forty four (44) healthy adult Sprague-Dawley (SD) rats, half male and half female, which were purchased from SINO-BRITSH SIPPR/BK LAB. ANIMAL LTD., CO, with Certificate No.: SCXK (Shanghai) 2008-0016, were divided into 11 groups, with 4 rats in each group.
The appropriate amount of test compounds was weighed, and mixed with 25 μL Tween 80 and Labrasol to prepare a 0.6 mg/mL suspension by ultrasonication.
After an overnight fast, 44 SD rats, half male and half female, were divided into 11 groups, and administered intragastrically at a dose of 5.0 mg/kg and an administration volume of 10 mL/kg.
Blood (0.1 mL) was sampled from the orbital sinus before administration and 0.5 h, 1.0 h, 2.0 h, 4.0 h, 6.0 h, 8.0 h, 11.0 h, and 24.0 h after administration. The samples were stored in EDTA anticoagulation tubes, and centrifuged for 5 minutes at 3,500 rpm to separate the blood plasma. The plasma samples were stored at −20° C. The rats were fed 2 hours after administration.
The plasma concentration of the test compounds in rat after intragastric administration was determined by LC-MS/MS. The linearity of the method is 5.00-2000 ng/mL and 1.00-2000 ng/ml, and the minimum of quantification is 5.00 ng/mL and 1.00 ng/mL.
Plasma samples were analyzed after pretreatment by protein precipitation.

For another series, the target named is human mPGES1 (Homo sapiens (Human), UniProt O14684). The series is described as follows: Inhibition activity for human mPGES1 (enzyme assay, PGE2 HTRF). The format is biochemical. Conditions: membrane protein from HEK-293 F transfected with human mPGES1. The procedure:
The method described here is used for determining the inhibition activity of the present compounds for human mPGES1.
• 1. PGE2 Assay kit (Cisbio, #62P2APEB) • 2. Prostaglandin H2 (Sigma, #P7867-1MG) • 3. FlexStation3 microplate reader. II. Experimental Procedure • 1. Obtaining the membrane proteins of mPGES1 enzyme
The cell density of HEK-293 F was grown to 6×10^5 per milliliter and was transferred with the plasmid containing human mPGES1 gene by transfection reagent PEI the next day. The cells were continuously cultured for 72 hours at 37° C. with shaking. After centrifuging at 1100 g for 5 minutes, the cells were harvested. After ultrasonication in an ice bath and centrifugation at 5000 g for 10 minutes, the supernatant was obtained. The supernatant was centrifuged at 100000 g for 1 hour to obtain a precipitate. The precipitate was resuspended with storage buffer containing 10% glycerinum, subpackaged and frozen rapidly under liquid nitrogen, and stored at −80° C. • 2. mPGES1 enzyme assay
mPGES1 was diluted with assay buffer and added into plate at 49 μL/well supplemented with 1 μL of compound (the final concentration of each compound at seven gradient concentrations was 10000 nM, 1000 nM, 100 nM, 10 nM, 1 nM, 0.1 nM and 0.01 nM). […] Then, each well was added with 53.8 μL of 6 mg/mL SnCl2 to quench the reaction. The sample was diluted with dilute buffer at 1:400. 10 μl of diluted sample, 5 μL PGE2-d2 and 5 μL anti-PGE2 Cryptate were added to a black 384-well plate, and incubated at 4° C. overnight. HTRF was determined using Flexstation, and the IC50 of the compounds was obtained by data processing software.
The inhibition activity of the present compounds on mPGES1 was tested by the assay described above.
(In TR-FRET formats the signal depends on donor and acceptor labels being close together.)

Chain of human mPGES1 (O14684 whole entry): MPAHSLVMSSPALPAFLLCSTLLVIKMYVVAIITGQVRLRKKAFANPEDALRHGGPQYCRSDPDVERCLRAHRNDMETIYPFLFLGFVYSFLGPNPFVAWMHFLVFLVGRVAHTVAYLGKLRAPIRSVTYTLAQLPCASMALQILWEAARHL

As to `CCn1c(-c2cccc(Cl)c2)cc2cc(NC(=O)c3cc(CNC(=O)C(C)(C)F)cnc3C(F)F)ccc21` [Example 20, N-(2-(3-Chlorophenyl)-1-ethyl-1H-indol-5-yl)-2-(difluoromethyl)-5-(((2-fluoro-2-methyl-propanoyl)amino)methyl)nicotinamide], the IC50 (as a rule, the concentration needed to halve the response being measured) in series [1] was 12.6 nM; against human mPGES1, 3.54 nM. Besides, the Vd/F in series [2] (read-out: Apparent Distribution Volume Vz/F) was determined as 5.41 ± 1.81 L/kg. In addition, the AUC (commonly concentration integrated over time) in series [2] (read-out: Area Under Curve AUC) amounted to 8240 ± 2280 ng·h/mL. For the same compound, the CL/F in series [2] (read-out: Clearance CLz/F) was determined as 10.7 ± 2.7 mL/min/kg. Also, the half-life (as a rule, how long it takes for the measured level to halve) in series [2] (read-out: Half-Life T½ (converted)) was 5.94 ± 2 h. For the same compound, the MRT – broadly, a mean duration of stay, worked out from the concentration-time curve – in series [2] (read-out: Mean Residence Time MRT) is 11.1 ± 3 h. Also, in series [2] (read-out: Plasma Conc. Cmax), the Cmax (commonly the peak of the concentration-time curve) turned out to be 681 ± 195 ng/mL.
Regarding `CC(C)C(=O)NCc1cnc(C(F)F)c(C(=O)Nc2ccc3oc(-c4ccc(C(F)(F)F)cc4)cc3c2)c1` [Example 39, 2-(Difluoromethyl)-5-((2-methylpropanoylamino)methyl)-N-(2-(4-(trifluoromethyl)phenyl)benzofuran-5-yl)nicotinamide], the results for the IC50 (in series [1]; against human mPGES1) were 30.5 nM and 3.68 nM, respectively.
For `CC(C)(F)C(=O)NCc1cnc(C(F)F)c(C(=O)Nc2ccc3c(c2)CN(c2ccc(C(F)(F)F)cc2)C3)c1` [Example 26, 2-(Difluoromethyl)-5-(((2-fluoro-2-methyl-propanoyl)amino)methyl)-N-(2-(4-(trifluoromethyl)phenyl)isoindolin-5-yl)nicotinamide] the same measures were 46 nM and 3.38 nM.
On to `CC(C)C(=O)NCc1cnc(C(F)F)c(C(=O)Nc2ccc3nn(-c4ccc(C(F)(F)F)cc4)cc3c2)c1` [Example 24, 2-(Difluoromethyl)-5-((2-methylpropanoylamino)methyl)-N-(2-(4-(trifluoromethyl)phenyl)-2H-indazol-5-yl)nicotinamide], for which the figures for the IC50 (in series [1]; on human mPGES1) were 45.6 nM and 17.2 nM, respectively.
In the case of `CC(C)C(=O)NCc1cnc(C(F)F)c(C(=O)Nc2ccc3nc(-c4ccc(C(F)(F)F)cc4)sc3c2)c1` [Example 54, 2-(Difluoromethyl)-5-((2-methylpropanoylamino)methyl)-N-(2-(4-(trifluoromethyl)phenyl)benzo[d]thiazol-6-yl)nicotinamide], the IC50 in series [1] was 58.5 nM; against human mPGES1, 47.1 nM.
On to `Cn1c(-c2ccc(Cl)cc2)cc2cc(NC(=O)c3cc(CNC(=O)C4(C(F)(F)F)CC4)cnc3C(F)F)ccc21` [Example 21, N-(2-(4-Chlorophenyl)-1-methyl-1H-indol-5-yl)-2-(difluoromethyl)-5-(((1-(trifluoromethyl)cyclopropanecarbonyl)amino)methyl)nicotinamide], for which the IC50 in series [1] was 57.4 nM; on human mPGES1 it was 8.24 nM.
The matching figures for `CCn1c(-c2ccc(Cl)cc2)cc2cc(NC(=O)c3cc(CNC(=O)C(C)C)cnc3C(F)F)ccc21` [Example 10, 2-(Difluoromethyl)-N-(1-ethyl-2-(4-chlorophenyl)-1H-indol-5-yl)-5-((2-methylpropanoylamino)methyl)nicotinamide]: 12.3 nM and 11.2 nM.
As to `CC(C)(C)C(=O)NCc1ccc(Cl)c(C(=O)Nc2ccc3c(c2)C(=O)N(c2ccc(C(F)(F)F)cc2)C3)c1` [Example 58], the IC50 is 2.18 nM in series [1] and 8.51 nM on human mPGES1.
Consider `CC(C)(F)C(=O)NCc1cnc(C(F)F)c(C(=O)Nc2ccc3c(c2)cc(-c2ccc(Cl)cc2)n3[C@H]2CCOC2)c1` [Example 46, (S)-N-(2-(4-Chlorophenyl)-1-(tetrahydrofuran-3-yl)-1H-indol-5-yl)-2-(difluoromethyl)-5-(((2-fluoro-2-methyl-propanoyl)amino)methyl)nicotinamide], for which the IC50 in series [1] amounted to 24.7 nM; on human mPGES1, 2.71 nM.
As to `CC(C)C(=O)NCc1cnc(C(F)F)c(C(=O)Nc2ccc3c(c2)cc(-c2ccc(C(F)(F)F)cc2)n3C)c1` [Example 9, 2-(difluoromethyl)-N-(1-methyl-2-(4-(trifluoromethyl)phenyl)-1H-indol-5-yl)5-((2-methylpropanoylamino)methyl)-nicotinamide], the values for the IC50 (in series [1]; against human mPGES1) were 11.8 nM and 15.6 nM, respectively.
For `CC(C)C(=O)NCc1cnc(C(F)F)c(C(=O)Nc2ccc3c(c2)cc(-c2ccc(Cl)cc2)n3C)c1` [Example 13, N-(2-(4-chlorophenyl)-1-methyl-1H-indol-5-yl)-2-(difluoromethyl)-5-((2-methylpropanoylamino)methyl)nicotinamide] the same measures were 16.7 nM and 7.43 nM.
For `Cn1c(-c2ccc(F)cc2)cc2cc(NC(=O)c3cc(CNC(=O)C4(C(F)(F)F)CC4)ccc3Cl)ccc21` [Example 34, 2-Chloro-N-(2-(4-fluorophenyl)-1-methyl-1H-indol-5-yl)-5-(((1-(trifluoromethyl)cyclopropanecarbonyl)amino)methyl)benzamide] the same measures were 12.2 nM and 7.75 nM.
As for `CC(C)C(=O)NCc1cnc(C(F)F)c(C(=O)Nc2ccc3oc(-c4ccc(C(F)(F)F)cc4)nc3c2)c1` [Example 38, 2-(Difluoromethyl)-5-((2-methylpropanoylamino)methyl)-N-(2-(4-(trifluoromethyl)phenyl)benzo[d]oxazol-5-yl)nicotinamide], the IC50 in series [1] stood at 42.9 nM; at human mPGES1, 5.43 nM.
Regarding `CC(C)(F)C(=O)NCc1cnc(C(F)F)c(C(=O)Nc2ccc3c(c2)C(=O)N(c2cccc(C(F)(F)F)c2)C3)c1` [Example 59, 2-(Difluoromethyl)-5-(((2-fluoro-2-methyl-propanoyl)amino)methyl)-N-(3-oxo-2-(3-(trifluoromethyl)phenyl)isoindolin-5-yl)nicotinamide], the IC50 in series [1] worked out at 20.5 nM; against human mPGES1 it was 1.18 nM.
With `CCn1c(-c2ccc(F)cc2)cc2cc(NC(=O)c3cc(CNC(=O)C(C)C)cnc3C(F)F)ccc21` [Example 5, 2-(Difluoromethyl)-N-(1-ethyl-2-(4-fluorophenyl)-1H-indol-5-yl)-5-((2-methylpropanoylamino)methyl)nicotinamide], the results for the IC50 (in series [1]; on human mPGES1) were 12.4 nM and 22 nM, respectively.
For `CC(C)(C)C(=O)NCc1ccc(Cl)c(C(=O)Nc2ccc3c(c2)C(=O)N(c2ccc(Cl)cc2)C3)c1` [Example 57, 2-Chloro-N-(2-(4-chlorophenyl)-3-oxo-isoindolin-5-yl)-5-((2,2-dimethylpropanoylamino)methyl)benzamide], the IC50 in series [1] came to 6.22 nM; against human mPGES1, 6.75 nM.

(Values after patent US10081629B2, “Amide derivatives and pharmaceutically acceptable salts thereof, preparation method thereof and medicinal application thereof” (Shanghai Hengrui Pharmaceutical Co., Ltd., priority 2014, dated 2018).)
